Data from patent US9085536B2, “Aconitine compounds, compositions, uses, and preparation thereof” (priority 2011, dated 2015).
Where two headings read alike, the source gives them in different places.

How the values were obtained:
[1] = molecular target: T1, rNaV1.4 expressed in CHO cells (Rattus norvegicus, UniProt P15390); assay type: cell-based
T1 construct: expressed in transfected cells; host or cells: CHO cells
Protocol: […] […] It is noteworthy that little or no increase in current was observed during wash off when no depolarizing pulses were applied and peak current was measured as a function of time.
Since the molecules bind to the open-state of the Nav channel their release also requires activation pulses. In typical experiments, buffered external solution was perfused and a pulse train sequence was applied to the patch-clamp until the current reached a steady-state for at least two minutes.

[2] = molecular target: T1, rNaV1.4 expressed in CHO cells; assay: Steady-state inactivation, whole-cell recording, Boltzmann fit; assay type: cell-based
Protocol: . The channels were modified by perfusing the cells with buffered solution containing aconitine at the given concentrations and then simple pulses (10 ms pulses to 0 mV from −100 mV holding potential) were recorded until the currents leveled to a steady value (typically ˜1000 pulses). Steady-state fast inactivation of the current was then determined by delivering 500 ms conditioning pulses to potentials ranging from −130 to −11 mV (7 my increments) immediately followed by a 10 ms test pulse to 0 mV to test the available current. The peak current measured during the test pulse was normalized to the maximum peak current recorded in the conditioning pulses. […] Midpoint voltage V0.5 represents the membrane potential at which half maximum current is observed; slope factor at midpoint k quantifies the rate at which the inactivation response occurs.

[3] = molecular target: T1, rNaV1.4 expressed in CHO cells; assay: Activation: current-voltage (I-V) and conductance-voltage (G-V) relationship, whole-cell recording; assay type: cell-based; settings: 50 μM
Protocol: To determine if the shift in I-V relationship is affected by the aromaticity of the aconitine C14 benzoate, current-voltage relationships were recorded for control cells expressing NaV, those that had been modified by aconitine, and those that had been modified by aconitine C14-cyclohexanoate 4.8d. For the modified channels, solutions of 50 μM concentration of the respective toxins were perfused onto the cells, and then depolarizing pulses were applied until a steady state current was observed, generally requiring about 1000 pulses. At that time, current-voltage relationships were again recorded. […] A shift towards hyperpolarizing potentials is clearly observed in both cases. Currents recorded at −50 mV are highlighted for all three experiments.
To determine the effect on current-voltage (I-V) relationship of the aconitine derivatives, whole cell currents were recorded in cells expressing NaV in the presence of aconitine derivatives. Control I-V plots were recorded with unmodified NaV1.4, to which were compared NaV channels modified by aconitine as well as by selected analogs. For the modified channels, solutions of the respective toxins were perfused onto the cells, and then depolarizing pulses were applied until a steady state current was observed, generally requiring about 1000 pulses. A sequence of test pulses was then recorded to determine the current-voltage relationships (using a step protocol in which CHO cells were depolarized for 10 ms from a holding potential of −100 mV to a range of potentials from −95 mV to +30 mV in 5 or 10 mV increments; peak currents were normalized to the maximum peak current and plotted against voltage).

[4] = total dose; cited from earlier work
[5] = molecular target: T1, rNaV1.4 expressed in CHO cells; assay: Na+ current block at steady state, whole-cell patch clamp with pulse trains; assay type: cell-based; settings: for depolarizing pulses required to reach steady-state block: 10 Hz pulse trains
Protocol: Binding of aconitine to NaV is use-dependent and is known to result both in a left shift of the current-voltage (I-V) relationship and in partial block of the channel. […] To determine whether aconitine binding is reversible, two experiments were designed. First, as block by aconitine is known to be use dependent, peak current was measured as a function of pulse number in the presence of two different concentrations of aconitine. Since aconitine binds preferentially to the open state of the sodium channel, a pulse train was applied sequentially with a control pulse used to record peak current. The pulse train consisted of a series of 50 depolarizing pulses (from −100 mV holding potential to 0 mV, 10 ms duration) applied at 10 Hz frequency, while the control pulse consisted of a single depolarizing pulse (from −100 mV holding potential to 0 mV test potential, 10 ms duration).
Pulse trains of 10 Hz frequency and control pulses were applied sequentially to cells expressing rNaV1.4, and currents elicited from the control pulse were recorded after each pulse train. This process was repeated until the current elicited from the control pulse had reached a steady state and was no longer decreasing with each additional pulse train. If block were irreversible, this steady state current would be expected to be independent of toxin concentration—the toxin would not be able to dissociate from its receptor, and the number of toxin molecules is much greater than the number of sodium channels (assuming a 100 μL chamber containing 1000 CHO cells, each expressing 10,000 sodium channels, at 50 μM concentration toxin molecules outnumber receptors by a factor of 3×10^8:1), therefore, all receptors would eventually reach the bound state.
Block by aconitine is known to be use-dependent, therefore the use-dependence of the C14 derivatives of aconitine was evaluated. Peak Na current was measured as a function of pulse number in the presence of different concentrations of the molecules. […] Since aconitine binds preferentially to the open state of the sodium channel, a pulse train was applied sequentially with a control pulse used to record peak current. The pulse train consisted of a series of 50 depolarizing pulses (from −100 mV holding potential to 0 mV, 10 ms duration) applied at 10 Hz frequency, while the control pulse consisted of a single depolarizing pulse (from −100 mV holding potential to 0 mV test potential, 10 ms duration).
Pulse trains of 10 Hz frequency and control pulses were applied sequentially to CHO cells expressing rNaV1.4, and currents elicited from the control pulse were recorded after each pulse train. This process was repeated until the current elicited from the control pulse had reached a steady state and was no longer decreasing with each additional pulse train. If block were irreversible, this steady state current would be expected to be independent of toxin concentration—the toxin would not be able to dissociate from its receptor, and the number of toxin molecules is much greater than the number of sodium channels, therefore, all receptors would eventually reach the bound state.
The ability of the synthesized aconitine derivatives to block NaV channels was evaluated with patch-clamp experiments in the whole-cell configuration on CHO cells expressing rNaV1.4 heterologously. A buffer solution containing the toxin was applied to the cells, whole-cell Na^+ currents were recorded until the decreasing current reached a steady-state (300 to 3000 pulses, depending on the molecules and concentrations). The peak Na^+ currents were measured with a depolarizing test pulse (from −100 mV holding potential to 0 mV test potential, 10 ms duration).

T1 sequence (P15390 whole entry): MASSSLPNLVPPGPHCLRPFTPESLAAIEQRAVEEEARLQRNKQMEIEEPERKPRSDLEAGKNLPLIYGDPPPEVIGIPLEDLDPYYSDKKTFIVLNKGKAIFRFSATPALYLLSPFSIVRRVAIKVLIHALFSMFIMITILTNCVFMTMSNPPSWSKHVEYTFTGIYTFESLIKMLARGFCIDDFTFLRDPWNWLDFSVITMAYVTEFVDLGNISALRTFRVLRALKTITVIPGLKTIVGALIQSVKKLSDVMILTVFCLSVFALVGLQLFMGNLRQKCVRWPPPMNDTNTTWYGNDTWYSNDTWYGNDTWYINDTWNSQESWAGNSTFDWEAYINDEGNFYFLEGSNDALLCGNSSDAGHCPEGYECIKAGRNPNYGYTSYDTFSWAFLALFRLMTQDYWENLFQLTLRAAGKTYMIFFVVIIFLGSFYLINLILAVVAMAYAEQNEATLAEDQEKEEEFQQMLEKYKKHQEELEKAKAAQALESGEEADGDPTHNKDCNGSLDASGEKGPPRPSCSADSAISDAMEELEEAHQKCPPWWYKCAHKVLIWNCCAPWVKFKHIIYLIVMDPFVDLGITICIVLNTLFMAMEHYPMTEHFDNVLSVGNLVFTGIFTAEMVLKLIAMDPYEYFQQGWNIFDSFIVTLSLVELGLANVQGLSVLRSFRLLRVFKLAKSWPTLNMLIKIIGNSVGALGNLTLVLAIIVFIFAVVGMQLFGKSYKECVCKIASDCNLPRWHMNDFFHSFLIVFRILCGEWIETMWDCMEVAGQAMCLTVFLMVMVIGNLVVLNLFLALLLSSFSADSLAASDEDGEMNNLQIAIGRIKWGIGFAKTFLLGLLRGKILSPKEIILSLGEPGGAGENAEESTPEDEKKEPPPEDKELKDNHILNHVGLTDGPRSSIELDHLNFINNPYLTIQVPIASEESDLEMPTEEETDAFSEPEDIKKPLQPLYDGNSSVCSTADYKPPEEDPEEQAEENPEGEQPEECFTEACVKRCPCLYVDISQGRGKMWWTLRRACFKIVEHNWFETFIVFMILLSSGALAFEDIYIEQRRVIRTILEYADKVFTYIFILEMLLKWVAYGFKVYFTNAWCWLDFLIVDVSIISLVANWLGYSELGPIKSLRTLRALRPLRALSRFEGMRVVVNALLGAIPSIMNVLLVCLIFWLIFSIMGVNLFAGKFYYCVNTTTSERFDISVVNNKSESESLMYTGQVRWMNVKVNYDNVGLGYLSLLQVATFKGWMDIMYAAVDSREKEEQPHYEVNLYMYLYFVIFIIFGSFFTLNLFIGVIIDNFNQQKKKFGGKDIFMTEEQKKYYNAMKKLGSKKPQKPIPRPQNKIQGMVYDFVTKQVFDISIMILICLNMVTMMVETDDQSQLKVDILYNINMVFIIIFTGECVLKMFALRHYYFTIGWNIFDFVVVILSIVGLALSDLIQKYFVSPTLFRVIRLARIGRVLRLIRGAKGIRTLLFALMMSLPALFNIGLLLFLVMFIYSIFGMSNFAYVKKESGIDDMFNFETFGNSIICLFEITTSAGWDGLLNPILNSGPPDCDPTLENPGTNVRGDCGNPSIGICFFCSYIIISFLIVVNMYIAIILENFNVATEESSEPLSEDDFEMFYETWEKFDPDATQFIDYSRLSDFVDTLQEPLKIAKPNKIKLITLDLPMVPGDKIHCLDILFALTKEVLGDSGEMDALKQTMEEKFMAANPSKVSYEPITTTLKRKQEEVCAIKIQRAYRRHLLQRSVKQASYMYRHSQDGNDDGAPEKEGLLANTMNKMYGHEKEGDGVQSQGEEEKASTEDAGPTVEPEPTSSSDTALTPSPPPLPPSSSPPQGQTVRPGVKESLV

CCN1CC2(COC)C3C(OC)C4C1C3(C1C[C@@]3(O)[C@H](OC(=O)c5ccccc5)[C@@H]1[C@]4(OC(C)=O)[C@@H](O)[C@@H]3OC)[C@@H](OC)C[C@H]2O (some centres unmarked) [Aconitine, aconitine]
current restoration during wash off ([1]; after 200 μM and 1000 depolarizing pulses, toxin-free buffer with pulses): significant current restoration
Current after wash-off (%) ([1]; after wash-off of 20 μM): 94%
Current after wash-off (%) ([1]; after wash-off of 75 μM): 62%
Steady-state inactivation V0.5 (mV) ([2]; 5 μM): −65.1 mV
Steady-state inactivation k (slope factor at midpoint) ([2]; 5 μM): 6.50
Steady-state inactivation V0.5 (mV) ([2]; 50 μM): −65 mV
Steady-state inactivation k (slope factor at midpoint) ([2]; 50 μM): 5.97
Steady-state inactivation V0.5 (mV) ([2]; 200 μM): −82.4 mV
Steady-state inactivation k (slope factor at midpoint) ([2]; 200 μM): 21.0
Activation V0.5 (mV) [3]: −40.3 mV
Activation hg [3]: 10.4
membrane potential at which maximum inward Na current occurs [3]: around −10 mV
current at −50 mV ([3]; after about 1000 pulses, no current in control cells): substantial currents
lethal doses in humans, estimated [4]: 1 to 5 mg
peak current blocked at steady state [5]: 40%
% Remaining current after reaching steady-state binding ([5]; 5 μM): 40%
% Remaining current after reaching steady-state binding ([5]; 20 μM): 19%
peak current blocked at steady state ([5]; 20 μM): 81%
Current measured at 20 μM (%) ([5]; 20 μM, before wash-off): 19%
depolarizing pulses required to reach steady-state block ([5]; 20 μM): around 600 pulses
% Remaining current after reaching steady-state binding ([5]; 50 μM): 13%
peak current blocked at steady state ([5]; 50 μM): 83%
depolarizing pulses required to reach steady-state block ([5]; 50 μM): approximately 800 pulses
% Remaining current after reaching steady-state binding ([5]; 50 μM, listed as aconitine): 15%
% Remaining current after reaching steady-state binding ([5]; 75 μM): 13%
peak current blocked at steady state ([5]; 75 μM): 87%
Current measured at 75 μM (%) ([5]; 75 μM, before wash-off): 13%
depolarizing pulses required to reach steady-state block ([5]; 75 μM): 800 pulses
% Remaining current after reaching steady-state binding ([5]; 200 μM): 5%
peak current blocked at steady state ([5]; 200 μM): approximately 94%
depolarizing pulses required to reach steady-state block ([5]; 200 μM): 300 pulses
depolarizing pulses required to reach steady-state block ([5]; 5 (unit not printed)): over 2500 pulses
